Holding throughout (assay type): cell-based
The target in one assay is T1, PLK1 (Homo sapiens, UniProt P53350).
T1 construct: endogenous in cells; host or cells: HeLa LgBit (Plk1-HiBit KI): HeLa stably expressing LgBit, with a CRISPR/Cas9 knock-in of HiBit at the endogenous PLK1 locus
In words: Luciferase assay for PLK1 in HeLa LgBit (Plk1-HiBit KI) cell line. The settings on record: 300 nM compound, luminescence after 9 hours. As to the method: 2. Luciferase Assay for PLK1
(1) Preparation and Culture of HeLa LgBit (Plk1-HiBit KI) Cell Line
A HeLa cell line in which the LgBit vector was transfected and expressed stably was prepared. Then, after constructing gRNA and donor to express the HiBit amino acid sequence behind the C-terminal of the PLK1 gene, which was inherent in the cell, it was inserted into the cell together with a vector capable of expressing CRISPR/Cas9. Only the cells in which the insertion was completed and knock-in had progressed were selected, sub-cultured and used.
For cell culture, DMEM (Gibco), FBS (Gibco), PS (Gibco), […] cell culture dish (SPL), […] cell culture dish (SPL), 96-well culture plate (SPL), PBS pH 7.4 (Gibco), TrypLE™ Express (Gibco), Cell counter (Thermo Fisher Scientific) and 0.4% Trypan Blue Solution (DYNEBIO) were used.
(2) Treatment of Compounds of the Present Invention and Method of Luciferase Assay
In the case of HeLa LgBit (Plk1-HiBit KI), the compounds were treated after being released after thymidine block, and the process was as follows. Thymidine (Sigma-Aldrich) was completely dissolved in ddH2O and used in the experiment. For thymidine block, the products were treated with 2 mM of thymidine and then incubated for 24 hours. For release and chemical treatment, the medium was suctioned and washed with 1×PBS. TrypLE™ (Gibco) was added and incubated in 37° C. CO2 incubator (Thermo Fisher Scientific) for 5 mins. Cells neutralized by adding complete media were counted through a counter. For each well of a 96-well culture plate (SPL), 3.3×10^4 cells and a total medium volume of 150 μl were seeded and incubated in a CO2 incubator.
Each cell line was incubated in a CO2 incubator for 18 hours, and Endurazine (Promega, Cat. No. N257B) was added to each well to make up 4% of the total volume. After adding compounds of Examples in a 96-well white plate (SPL) to a concentration of 300 nM, the wavelength of the plate reader (BMG Labtech, CLARIOstar Plus) was set to 470-480 nm, and then the luminescence was tracked in real time.
In Table 2, Activity represents the ratio of the luminescence value of each Exemplary Compound treatment group to DMSO treatment group (+++: <0.3, ++: <0.5, +: <0.7).
On the technique in general: HiBiT is a short tag that completes a luciferase, so light tracks the accessible tagged protein.

Another assay concerns MRC-5 cell line. In words: Cell viability assay for MRC-5 cell line (EZ-Cytox). The settings on record: Homo sapiens, MRC5, 120 h; MRC-5 normal cell line, 5 days, 10000 nM to 1.52 nM; read-out: Activity: IC50 value, cell viability, MRC-5 cell line (Exemplary Compounds). As to the method: 4. Cell Viability Assay for MRC-5 Cell Line
(1) Culture of MRC-5 Cell Line
The MRC-5 cell line was purchased from KCLB. Passage of cultured cells was maintained within P15.
(2) Treatment of Compounds of the Present Invention
Then, it was cultured in 37° C. CO2 incubator (Thermo Fisher Scientific) for 5 days.
(3) Cytotoxicity Experiment
CO2 incubator for 4 hours.

For the next assay, the system named is NCI-H526 cell line. In words: Cell viability assay for NCI-H526 cell line (EZ-Cytox). The settings on record: Homo sapiens, NCI-H526, 120 h; H526 cells, 5 days, 3000 nM to 0.46 nM. As to the method:
(§1) 3. Cell Viability Assay for NCI-H69, NCI-H526 Cell Lines
(§2) (1) Culture of NCI-H69, NCI-H526 Cell Lines
(§3) The NCI-H69 (hereafter H69) and NCI-H526 (hereafter H526) cell lines were purchased from KCLB.
(§4) (2) Treatment of Compounds of the Present Invention and Method of Cell Viability Assay
(§5) After treating the compound to each well to make the total volume of 200 μl, it was cultured in a CO2 incubator (Thermo Fisher Scientific) for 5 days. […] The absorbance of the completely cultured sample was measured by setting the wavelength of a plate reader (BMG Labtech) to […], and was measured after shaking for 3 minutes in a plate reader before measurement.
(§6) The results of cell viability for H526 and H69 cell line are shown in Table 3 and Table 4, respectively.
(§7) In Table 3 and Table 4, Activity represents IC50 value of each Exemplary Compound treatment group to H526 and H69 cell line, respectively (A: <30 nM, B: <50 nM, C: <100 nM, D: <200 nM, E: <400 nM).

Another assay has as its system NCI-H69 cell line. In words: Cell viability assay for NCI-H69 cell line (EZ-Cytox). The settings on record: Homo sapiens, NCI-H69, 120 h; H69 cells, 5 days, 3000 nM to 0.46 nM. On the procedure: as §1, §2, §3, §4, §5, §6, §7

A value given as a limit tells only on which side of the number the result lay.

T1 sequence (P53350 whole entry): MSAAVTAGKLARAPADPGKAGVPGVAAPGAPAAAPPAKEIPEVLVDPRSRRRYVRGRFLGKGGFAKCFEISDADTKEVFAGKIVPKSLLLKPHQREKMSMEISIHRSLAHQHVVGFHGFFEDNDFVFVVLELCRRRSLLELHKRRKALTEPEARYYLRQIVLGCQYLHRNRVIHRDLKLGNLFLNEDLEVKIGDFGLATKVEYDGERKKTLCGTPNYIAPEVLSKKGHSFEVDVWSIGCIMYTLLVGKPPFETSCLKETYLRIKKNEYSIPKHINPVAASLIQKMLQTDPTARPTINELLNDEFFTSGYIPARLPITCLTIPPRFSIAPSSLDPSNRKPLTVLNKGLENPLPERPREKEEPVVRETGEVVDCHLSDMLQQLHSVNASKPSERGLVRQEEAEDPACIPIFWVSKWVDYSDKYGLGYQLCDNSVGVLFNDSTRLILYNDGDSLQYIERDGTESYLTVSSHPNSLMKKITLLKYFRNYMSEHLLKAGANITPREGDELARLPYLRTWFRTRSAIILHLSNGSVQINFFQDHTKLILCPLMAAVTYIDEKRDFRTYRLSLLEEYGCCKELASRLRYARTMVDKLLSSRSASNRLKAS

Broadly, the IC50 is the concentration at which inhibition is half-maximal. On to `COc1cc(C(=O)NC2CC3(CCN(CC4CCN(c5ccc(C6CCC(=O)NC6=O)cc5F)CC4)CC3)C2)ccc1Nc1ncc2c(n1)N(C)CC(F)(F)C(=O)N2C` (stereo not drawn) [Compound 5, 4-((7,7-difluoro-5,9-dimethyl-6-oxo-6,7,8,9-tetrahydro-5H-pyrimido[4,5-b][1,4]diazepin-2-yl)amino)-N-(7-((1-(4-(2,6-dioxopiperidin-3-yl)-2-fluorophenyl)piperidin-4-yl)methyl)-7-azaspiro[3.5]nonan-2-yl)-3-methoxybenzamide], for which the “Activity: ratio of the luminescence value of compound treatment group to DMSO treatment group” value (shortened to “Activity: ratio”) at PLK1 was “++ (++: <0.5)”. Moreover, the results for the 50% inhibitory concentration (IC50) in the assay on MRC-5 cell line, in the assay with NCI-H526 cell line and in the assay on NCI-H69 cell line were more than 10000 nM, less than 100 nM and less than 100 nM, respectively.
For `COc1cc(C(=O)NC2CCC(N(C)CC3CCN(c4ccc(C5CCC(=O)NC5=O)cc4C)CC3)CC2)ccc1Nc1ncc2c(n1)N(C1CCCC1)CC(F)(F)C(=O)N2C` (stereo not drawn) [Compound 6, 4-((9-cyclopentyl-7,7-difluoro-5-methyl-6-oxo-6,7,8,9-tetrahydro-5H-pyrimido[4,5-b][1,4]diazepin-2-yl)amino)-N-((1r,4r)-4-(((1-(4-(2,6-dioxopiperidin-3-yl)-2-methylphenyl)piperidin-4-yl)methyl)(methyl)amino)cyclohexyl)-3-methoxybenzamide], the “Activity: ratio” value at PLK1 is on record as “+++ (+++: <0.3)”. Besides, the concentration for half-maximal inhibition (IC50) is more than 10000 nM with MRC-5 cell line, less than 100 nM with NCI-H526 cell line and less than 50 nM with NCI-H69 cell line.
The corresponding values for `COc1cc(C(=O)NN2CCC(CCN3CCN(c4cc(OC)c(C5CCC(=O)NC5=O)cc4F)CC3)CC2)ccc1Nc1ncc2c(n1)N(C(C)C)CC(F)(F)C(=O)N2C` (stereo not drawn) [Compound 7, 4-((7,7-difluoro-9-isopropyl-5-methyl-6-oxo-6,7,8,9-tetrahydro-5H-pyrimido[4,5-b][1,4]diazepin-2-yl)amino)-N-(4-(2-(4-(4-(2,6-dioxopiperidin-3-yl)-2-fluoro-5-methoxyphenyl)piperazin-1-yl)ethyl)piperidin-1-yl)-3-methoxybenzamide] are “++ (++: <0.5)”, more than 10000 nM, less than 50 nM and less than 50 nM.
As for `COc1cc(C(=O)N[C@H]2CC[C@H](N(C)CC3CCN(c4cccc(N5CCC(=O)NC5=O)c4)CC3)CC2)ccc1Nc1ncc2c(n1)N(C1CCCC1)CC(F)(F)C(=O)N2C` [Compound 8, 4-((9-cyclopentyl-7,7-difluoro-5-methyl-6-oxo-6,7,8,9-tetrahydro-5H-pyrimido[4,5-b][1,4]diazepin-2-yl)amino)-N-((1r,4r)-4-(((1-(3-(2,4-dioxotetrahydropyrimidin-1 (2H)-yl)phenyl)piperidin-4-yl)methyl)(methyl)amino)cyclohexyl)-3-methoxybenzamide], the “Activity: ratio” value at PLK1 was “++ (++: <0.5)”. Besides, the IC50 with MRC-5 cell line is more than 10000 nM; with NCI-H526 cell line, less than 30 nM; with NCI-H69 cell line, less than 30 nM.
For `COc1cc(C(=O)N[C@H]2CC[C@H](CN(C)C3CCN(c4ccc(C5CCC(=O)NC5=O)nc4)CC3)CC2)ccc1Nc1ncc2c(n1)N(C1CCCC1)CC(F)(F)C(=O)N2C` (stereo partly drawn) [Compound 9, 4-((9-cyclopentyl-7,7-difluoro-5-methyl-6-oxo-6,7,8,9-tetrahydro-5H-pyrimido[4,5-b][1,4]diazepin-2-yl)amino)-N-((1r,4r)-4-(((1-(6-(2,6-dioxopiperidin-3-yl)pyridin-3-yl)piperidin-4-yl)(methyl)amino)methyl)cyclohexyl)-3-methoxybenzamide], on PLK1, the “Activity: ratio” value is recorded as “++ (++: <0.5)”. Moreover, the IC50 in the assay on MRC-5 cell line was more than 10000 nM; in the assay with NCI-H526 cell line it was less than 30 nM; in the assay on NCI-H69 cell line, less than 30 nM.
Consider `COc1cc(C(=O)NC2CCC(N(C)CC3CCN(c4ccc(C5CCC(=O)NC5=O)nc4)CC3)CC2)ccc1Nc1ncc2c(n1)N(C1CCCC1)CC(F)(F)C(=O)N2C` (stereo not drawn) [Compound 10, 4-((9-cyclopentyl-7,7-difluoro-5-methyl-6-oxo-6,7,8,9-tetrahydro-5H-pyrimido[4,5-b][1,4]diazepin-2-yl)amino)-N-((1r,4r)-4-(((1-(6-(2,6-dioxopiperidin-3-yl)pyridin-3-yl)piperidin-4-yl)methyl)(methyl)amino)cyclohexyl)-3-methoxybenzamide], for which, on PLK1, the “Activity: ratio” value is on record as “+++ (+++: <0.3)”. Moreover, the 50% inhibitory concentration (IC50) in the assay on MRC-5 cell line is more than 10000 nM; in the assay with NCI-H526 cell line it was less than 30 nM; with NCI-H69 cell line it was less than 30 nM.
Take `COc1cc(C(=O)NC2CCC(N(C)CC3CCN(c4ccc(C5CCC(=O)NC5=O)nc4)CC3)CC2)ccc1Nc1ncc2c(n1)N(C(C)C)CC(F)(F)C(=O)N2C` (stereo not drawn) [Compound 11, 4-((7,7-difluoro-9-isopropyl-5-methyl-6-oxo-6,7,8,9-tetrahydro-5H-pyrimido[4,5-b][1,4]diazepin-2-yl)amino)-N-((1r,4r)-4-(((1-(6-(2,6-dioxopiperidin-3-yl)pyridin-3-yl)piperidin-4-yl)methyl)(methyl)amino)cyclohexyl)-3-methoxybenzamide]: the “Activity: ratio” value on PLK1 was “++ (++: <0.5)”. In addition, the half-maximal inhibitory concentration (IC50) in the assay on MRC-5 cell line is more than 10000 nM; with NCI-H526 cell line, less than 30 nM; in the assay with NCI-H69 cell line, less than 30 nM.
For the compound `COc1cc(C(=O)NC2CCC(N(C)CC3CCN(c4cnc(C5CCC(=O)NC5=O)cc4C)CC3)CC2)ccc1Nc1ncc2c(n1)N(C)CC(F)(F)C(=O)N2C` (stereo not drawn) [Compound 12, 4-((7,7-difluoro-5,9-dimethyl-6-oxo-6,7,8,9-tetrahydro-5H-pyrimido[4,5-b][1,4]diazepin-2-yl)amino)-N-((1r,4r)-4-(((1-(6-(2,6-dioxopiperidin-3-yl)-4-methylpyridin-3-yl)piperidin-4-yl)methyl)(methyl)amino)cyclohexyl)-3-methoxybenzamide], the “Activity: ratio” value on PLK1 is “+++ (+++: <0.3)”. Also, the values for the concentration for half-maximal inhibition (IC50) in the assay on MRC-5 cell line, in the assay on NCI-H526 cell line and in the assay on NCI-H69 cell line were more than 10000 nM, less than 200 nM and less than 200 nM, respectively.
Turning to `CCN1CC(F)(F)C(=O)N(C)c2cnc(Nc3ccc(C(=O)NC4CCC(N(C)CC5CCN(c6cnc(C7CCC(=O)NC7=O)cc6C)CC5)CC4)cc3OC)nc21` (stereo not drawn) [Compound 13, N((1r,4r)-4-(((1-(6-(2,6-dioxopiperidin-3-yl)-4-methylpyridin-3-yl)piperidin-4-yl)methyl)(methyl)amino)cyclohexyl)-4-((9-ethyl-7,7-difluoro-5-methyl-6-oxo-6,7,8,9-tetrahydro-5H-pyrimido[4,5-b][1,4]diazepin-2-yl)amino)-3-methoxybenzamide], at PLK1, the “Activity: ratio” value is “+++ (+++: <0.3)”. Moreover, the IC50 in the assay with MRC-5 cell line is more than 10000 nM; in the assay with NCI-H526 cell line it was less than 30 nM; with NCI-H69 cell line, less than 30 nM.

Values taken from patent US20260273072A1, “NOVEL PLK1 DEGRADATION INDUCING COMPOUND” (UPPTHERA, INC., priority 2023, published 2026).
